We go through 6 compounds from patent US10117864B2, “Substituted N-bicyclo-2-aryl-quinolin-4-carboxamides and use thereof” (BAYER PHARMA AKTIENGESELLSCHAFT, priority 2015, dated 2018).

Bounds are passed on as bounds.

The conditions of series [1]: eliminated renally; cited from earlier work.
For series [2] the following is noted: unstable molecule, rearranged enzymatically in lung, liver and kidney to 15-ketodihydro-PGF2α; cited from earlier work.
The target in another series is human FP receptor (Homo sapiens (Human), UniProt P43088). The series is described as follows: In vitro test of inhibition of human FP receptor activity (PGF2α-induced calcium flux in FP-expressing CHEM1 cells). As to conditions: PGF2α-induced (3 nM) calcium flux, some as mean values from multiple independent determinations. In kind it is cell-based. The source says:
• CRTH2 chemoattractant receptor-homologous molecule expressed on T helper type 2 cells • DMEM Dulbecco's modified Eagle's medium • DMSO dimethyl sulfoxide • DP PGD2 receptor • EC50 half-maximum effective concentration • Em emission • EP PGE2 receptor • Ex excitation • from Company (source) • FCS fetal calf serum • FP PGF2α receptor • HEPES 2-[4-(2-hydroxyethyl)piperazin-1-yl]ethanesulfonic acid • IC50 half-maximum inhibitory concentration • IP PGI2 receptor • MES 2-(N-morpholino)ethanesulfonic acid • Pen/Strep penicillin/streptomycin • PGD2 prostaglandin D2 • PGE2 prostaglandin E2 • PGF2α prostaglandin F2α • PGI2 prostaglandin I2 • TC tissue culture • TP thromboxane A2 receptor • Tris tris(hydroxymethyl)aminomethane • v/v volume to volume ratio (of a solution) • w/w weight to weight ratio (of a solution) B-1. In Vitro Test of Inhibition of Human FP Receptor Activity
For the characterization of test substances in respect of FP antagonism, PGF2α-induced calcium flux in FP-expressing CHEM1 cells (Millipore, HTS093C) was used.
Prior to the measurement, the medium is replaced by 30 μl of Fluo-8 AM loading buffer [calcium-free Tyrode (130 mM NaCl, 5 mM KCl, 20 mM HEPES, 1 mM MgCl2, 4.8 mM NaHCO3, pH 7.4), 2 mM CaCl2, 1× SmartBlock (from CANDOR Bioscience GmbH), 4.5 mM Probenecid, 5 μM Fluo-8 AM, 0.016% Pluronic®, 0.04% Brilliant black] and incubated at 37° C./5% CO2 for 30 minutes. […] 10 μl of the prediluted substance solution are added to the Fluo-8-laden cells and incubated at 37° C./5% CO2 for 10 minutes. The FP receptor is activated by adding 20 μl of 3 nM (final concentration) PGF2α in calcium-free Tyrode/2 mM CaCl2/0.04% Brilliant black, and the calcium flux is determined by measuring the fluorescence at ex. 470 nm/[…].
Table 1 below lists the IC50 values from this assay for individual working examples of the invention (some as mean values from multiple independent individual determinations): […]

Sequence of human FP receptor (P43088 whole entry): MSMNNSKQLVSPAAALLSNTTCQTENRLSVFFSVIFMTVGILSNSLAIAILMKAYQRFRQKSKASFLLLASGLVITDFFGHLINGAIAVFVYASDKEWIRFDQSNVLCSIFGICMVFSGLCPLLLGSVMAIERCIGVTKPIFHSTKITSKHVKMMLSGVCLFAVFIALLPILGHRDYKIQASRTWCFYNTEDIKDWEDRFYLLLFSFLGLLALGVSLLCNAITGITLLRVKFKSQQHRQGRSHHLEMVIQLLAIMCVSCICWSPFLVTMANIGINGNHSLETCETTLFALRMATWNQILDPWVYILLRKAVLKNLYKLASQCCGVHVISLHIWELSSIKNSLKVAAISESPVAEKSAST

Bleomycin: the half-life entry in series [1] is given as “about 3 hours”.
Take Prostaglandin F2alpha [PGF2α]: the t1/2 in series [2] is less than 1 min.
The term IC50 denotes the point on the concentration scale where inhibition reaches its midpoint. As to `Cc1c(-c2cccc(F)c2)nc2ccc(Br)cc2c1C(=O)NC12CCC(C(=O)O)(CC1)CC2` [Example 7, 4-({[6-Bromo-2-(3-fluorophenyl)-3-methylquinolin-4-yl]carbonyl}amino)bicyclo[2.2.2]octane-1-carboxylic acid], the IC50 at human FP receptor turned out to be 181 nM.
As for `Cc1c(-c2ccccc2)nc2ccc(Br)cc2c1C(=O)NC12CC(C(=O)O)(C1)C2` [Example 37, 3-{[(6-Bromo-3-methyl-2-phenylquinolin-4-yl)carbonyl]amino}bicyclo[1.1.1]pentane-1-carboxylic acid], the IC50 at human FP receptor came out at 723 nM.
Still for that read-out and setting: in the case of `O=C(NC12CCC(C(=O)O)(CC1)CC2)c1c(F)c(-c2ccccc2)nc2ccc(Br)cc12` [Example 12, 4-{[(6-Bromo-3-fluoro-2-phenylquinolin-4-yl)carbonyl]amino}bicyclo[2.2.2]octane-1-carboxylic acid] it was 139 nM.
For the compound `Cc1c(-c2ccccc2)nc2ccc(Br)cc2c1C(=O)NC12CCCC(C(=O)O)(CC1)CC2` [Example 39, 5-{[(6-Bromo-3-methyl-2-phenylquinolin-4-yl)carbonyl]amino}bicyclo[3.2.2]nonane-1-carboxylic acid], at human FP receptor, the IC50 was 230 nM.
